Inconclusive results and toxic doses are left out. Rule as the data show it: active = T/C of 150% or more; inactive = T/C below 125%.
Test system: L1210 leukemia ip in BDF1 mice, survival T/C
Assay: NCI In Vivo Anticancer Drug Screen. Data for tumor model L1210 Leukemia (intraperitoneal) in B6D2F1 (BDF1) mice
Conditions: endpoint: mean survival time, higher = longer survival
Method: The antitumor activity of compounds was measured in mice bearing transplantable tumors. Survival or tumor size were measured and the results are expressed as the measurement made in the treated group (T) divided by the measurement made in the vehicle treated control group (C). The tumor model used in this assay is L1210 Leukemia (intraperitoneal) in B6D2F1 (BDF1) mice

[1] = dose: 100.0 mg/kg/injection, schedule: Q04DX003 (ip), vehicle: saline
[2] = dose: 200.0 mg/kg/injection, schedule: Q04DX003 (ip), vehicle: saline
[3] = dose: 400.0 mg/kg/injection, schedule: Q04DX003 (ip), vehicle: saline
[4] = dose: 100.0 mg/kg/injection, schedule: Q01DX009 (ip), vehicle: saline with Tween-80
[5] = dose: 200.0 mg/kg/injection, schedule: Q01DX009 (ip), vehicle: saline with Tween-80
[6] = dose: 400.0 mg/kg/injection, schedule: Q01DX009 (ip), vehicle: saline with Tween-80
[7] = dose: 100.0 mg/kg/injection, schedule: Q01DX009 (ip), vehicle: saline
[8] = dose: 200.0 mg/kg/injection, schedule: Q01DX009 (ip), vehicle: saline

Measured: T/C

CCc1ccccc1NC(=O)C(Cl)Cl
inactive: dose: 100.0 mg/kg/injection, schedule: Q04DX002 (ip), vehicle: Klucel (hydroxypropylcellulose) (HPC) 100 % of control | dose: 200.0 mg/kg/injection, schedule: Q04DX002 (ip), vehicle: Klucel (hydroxypropylcellulose) (HPC) 103 % of control | dose: 400.0 mg/kg/injection, schedule: Q04DX002 (ip), vehicle: Klucel (hydroxypropylcellulose) (HPC) 100 % of control

COC(=O)C(=O)c1c(-c2ccc[n+](Cc3ccccc3)c2)[nH]c2ccccc12
inactive: dose: 75.0 mg/kg/injection, schedule: Q01DX001 (ip), vehicle: saline 101 % of control | dose: 150.0 mg/kg/injection, schedule: Q01DX001 (ip), vehicle: saline 93 % of control

ClCCOCC1CO1 (stereo unspecified)
inactive: dose: 25.0 mg/kg/injection, schedule: Q04DX003 (ip), vehicle: saline 92 % of control | dose: 50.0 mg/kg/injection, schedule: Q04DX003 (ip), vehicle: saline 88 % of control | [1] 97 % of control

Cc1ccc2ccccc2c1N(CC(=O)O)S(=O)(=O)c1ccccc1
inactive: dose: 100.0 mg/kg/injection, schedule: Q04DX003 (ip), vehicle: saline sonified 93 % of control | dose: 200.0 mg/kg/injection, schedule: Q04DX003 (ip), vehicle: saline sonified 102 % of control | dose: 400.0 mg/kg/injection, schedule: Q04DX003 (ip), vehicle: saline sonified 101 % of control

COC(=O)CNC(=O)C1CSC(C)(C)N1 (stereo unspecified)
inactive: dose: 100.0 mg/kg/injection, schedule: Q01DX001 (ip), vehicle: steriod suspending solution 100 % of control | dose: 200.0 mg/kg/injection, schedule: Q01DX001 (ip), vehicle: steriod suspending solution 97 % of control | dose: 400.0 mg/kg/injection, schedule: Q01DX001 (ip), vehicle: steriod suspending solution 100 % of control

CN(CC(C)(C)C(O)c1ccccc1)C(=O)c1ccccc1 (stereo unspecified)
inactive: [1] 102 % of control | [2] 100 % of control | [3] 96 % of control

COC(=O)C1=C(C(=O)OC)C2C=CC1C2
inactive: dose: 100.0 mg/kg/injection, schedule: Q01DX001 (ip), vehicle: saline 102 % of control | dose: 100.0 mg/kg/injection, schedule: Q01DX009 (ip), vehicle: Klucel (hydroxypropylcellulose) (HPC) 111 % of control | dose: 200.0 mg/kg/injection, schedule: Q01DX001 (ip), vehicle: saline 94 % of control | dose: 200.0 mg/kg/injection, schedule: Q01DX009 (ip), vehicle: Klucel (hydroxypropylcellulose) (HPC) 91 % of control | dose: 400.0 mg/kg/injection, schedule: Q01DX001 (ip), vehicle: saline 91 % of control | dose: 400.0 mg/kg/injection, schedule: Q01DX009 (ip), vehicle: Klucel (hydroxypropylcellulose) (HPC) 97 % of control

CC(=O)NC1CCC(S(=O)(=O)N2N=NC3CCCCC32)CC1 (stereo unspecified)
inactive: [4] 98 % of control | [5] 93 % of control | [6] 92 % of control

COC(=O)c1ccccc1NC(=O)C(Cl)Cl
inactive: dose: 100.0 mg/kg/injection, schedule: Q01DX009 (ip), vehicle: other 106 % of control | dose: 200.0 mg/kg/injection, schedule: Q01DX009 (ip), vehicle: other 93 % of control | dose: 400.0 mg/kg/injection, schedule: Q01DX009 (ip), vehicle: other 98 % of control

NC(=S)NN=C1CCCCCCCCCCC1
inactive: dose: 50.0 mg/kg/injection, schedule: Q01DX001 (ip), vehicle: carboxymethylcellulose (CMC) 106 % of control | dose: 100.0 mg/kg/injection, schedule: Q01DX001 (ip), vehicle: carboxymethylcellulose (CMC) 98 % of control | dose: 200.0 mg/kg/injection, schedule: Q01DX001 (ip), vehicle: carboxymethylcellulose (CMC) 95 % of control | dose: 400.0 mg/kg/injection, schedule: Q01DX001 (ip), vehicle: carboxymethylcellulose (CMC) 88 % of control

O=S(=O)(O)c1cccc2cccc(Cl)c12
inactive: [4] 99 % of control | [7] 95 % of control | [1] 109 % of control | [5] 94 % of control | [8] 97 % of control | [2] 105 % of control | [6] 96 % of control | dose: 400.0 mg/kg/injection, schedule: Q01DX009 (ip), vehicle: saline 103 % of control | [3] 115 % of control

O=[N+]([O-])c1cc(O)ccc1Cl
inactive: dose: 50.0 mg/kg/injection, schedule: Q01DX009 (ip), vehicle: saline 93 % of control | [7] 102 % of control | dose: 100.0 mg/kg/injection, schedule: Q04DX003 (ip), vehicle: alcohol 104 % of control | [8] 87 % of control

From PubChem BioAssay AID248 (DTP/NCI, 2004)
